Data from BindingDB's records for doi:10.7270/Q2V986FT (Emory University, 2007).

Target: T1, 14-3-3 protein gamma (Homo sapiens, UniProt P61981)
T1 sequence (P61981 whole entry): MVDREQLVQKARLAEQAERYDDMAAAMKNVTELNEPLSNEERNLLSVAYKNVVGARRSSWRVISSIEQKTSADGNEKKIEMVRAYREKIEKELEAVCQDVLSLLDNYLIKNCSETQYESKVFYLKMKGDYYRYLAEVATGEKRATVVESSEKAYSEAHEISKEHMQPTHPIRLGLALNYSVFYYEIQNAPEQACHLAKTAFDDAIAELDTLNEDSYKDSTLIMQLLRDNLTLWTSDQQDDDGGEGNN
Assay: modulators of 14-3-3 gamma client binding – dose response (AID 711)

IC50	SMILES
> 50 µM	CC(N=O)C(=O)NCc1ccccn1 (stereo not drawn) [(2E)-2-(hydroxyimino)-N-(pyridin-2-ylmethyl)propanamide]
> 50 µM	Cc1ccc(C2C3CN(C(C)C)CCC3=C(C#N)C(=N)C2(C#N)C#N)cc1 (stereo not drawn) [SMR000034220]
3.15 µM	CC1=NC(c2ccccc2)C(C#N)(C#N)C(C#N)(C#N)C1 (stereo not drawn) [SMR000037705]
